Assay results published in paper PMC8510274, “Plasma-Induced Oxidation Products of (–)-Epigallocatechin Gallate with Digestive Enzymes Inhibitory Effects” (Molecules, 2021).
Read-outs that look alike come from different tables or passages of the source.

Key:
[1] = target: T1, α-glucosidase (EC 3.2.1.20) from Saccharomyces cerevisiae (Saccharomyces cerevisiae, UniProt P53341); assay: biochemical
T1 construct: purchased Sigma-Aldrich
Procedure: (§1) The specific optical rotation was obtained using a JASCO P-2000 polarimeter (JASCO, Tokyo, Japan), and fast atom bombardment mass spectrometry (FABMS) was recorded on a JMS-700 spectrometer (JEOL, Tokyo, Japan) in negative mode.
The α-glucosidase inhibitory activities of the compounds were evaluated using a minor modification of a previously reported method. The reaction mixture consisted of an enzyme solution (0.5 unit of α-glucosidase, 90 μL), a substrate (1 mM p-NPG, 100 μL) in a 0.1 M phosphate buffer (pH 7.0), and the isolated compounds, and positive control in 5% DMSO (10 μL). After incubation at 37 °C for 30 min, 0.1 M NaOH was added to quench the reaction.
(§2) The α-amylase inhibition assay was performed using a previously reported method with slight modifications. Porcine pancreatic α-amylase (1 unit, 90 µL) was incubated with the sample, and the positive control, at various concentrations. The reaction was started by adding 100 µL of a 1% potato starch solution, in 20 mM phosphate buffer (pH 6.9), to the reaction mixture. […] The mixture was then boiled at 80 °C for 10 min in a water bath and then cooled on ice. The α-amylase inhibitory activity was measured at 540 nm using an ELISA reader. Enzyme inhibition (%) = [1−(A1/A0)] × 100(1) where A0 and A1 are the absorbance of the control and sample, respectively. The α-glucosidase and α-amylase inhibition (%) was calculated, and the half-maximal inhibitory concentration (IC50) was determined by linear regression analysis of the inhibitory activities under the assay conditions.

[2] = target: T2, Porcine pancreatic α-amylase (Sus scrofa, UniProt P00690); assay: α-amylase inhibition assay (potato starch, DNS reagent); assay type: biochemical
T2 construct: purchased Sigma-Aldrich; host or cells: porcine pancreas
T2 sequence (P00690 16-511): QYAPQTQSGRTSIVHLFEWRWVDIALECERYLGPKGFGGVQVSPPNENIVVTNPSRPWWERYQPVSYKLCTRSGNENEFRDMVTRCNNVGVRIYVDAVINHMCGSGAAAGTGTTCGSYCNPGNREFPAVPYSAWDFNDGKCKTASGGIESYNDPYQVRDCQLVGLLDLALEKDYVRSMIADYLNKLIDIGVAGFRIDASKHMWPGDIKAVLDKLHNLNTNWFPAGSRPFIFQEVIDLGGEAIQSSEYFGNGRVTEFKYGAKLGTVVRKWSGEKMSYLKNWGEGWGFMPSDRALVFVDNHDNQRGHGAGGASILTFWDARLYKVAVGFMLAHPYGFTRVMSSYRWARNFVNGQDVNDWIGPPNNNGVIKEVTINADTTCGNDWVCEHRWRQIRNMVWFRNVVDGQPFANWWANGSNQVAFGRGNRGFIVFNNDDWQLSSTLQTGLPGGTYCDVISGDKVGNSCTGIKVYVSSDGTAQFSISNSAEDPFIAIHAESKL
Procedure: as §1, §2

[3] = isolated compounds, triplicate, acarbose positive control, read-out: IC50 Value α-Amylase (converted)
[4] = IC50 Value α-Glucosidase, isolated compounds, triplicate, acarbose positive control

T1 sequence (P53341 whole entry): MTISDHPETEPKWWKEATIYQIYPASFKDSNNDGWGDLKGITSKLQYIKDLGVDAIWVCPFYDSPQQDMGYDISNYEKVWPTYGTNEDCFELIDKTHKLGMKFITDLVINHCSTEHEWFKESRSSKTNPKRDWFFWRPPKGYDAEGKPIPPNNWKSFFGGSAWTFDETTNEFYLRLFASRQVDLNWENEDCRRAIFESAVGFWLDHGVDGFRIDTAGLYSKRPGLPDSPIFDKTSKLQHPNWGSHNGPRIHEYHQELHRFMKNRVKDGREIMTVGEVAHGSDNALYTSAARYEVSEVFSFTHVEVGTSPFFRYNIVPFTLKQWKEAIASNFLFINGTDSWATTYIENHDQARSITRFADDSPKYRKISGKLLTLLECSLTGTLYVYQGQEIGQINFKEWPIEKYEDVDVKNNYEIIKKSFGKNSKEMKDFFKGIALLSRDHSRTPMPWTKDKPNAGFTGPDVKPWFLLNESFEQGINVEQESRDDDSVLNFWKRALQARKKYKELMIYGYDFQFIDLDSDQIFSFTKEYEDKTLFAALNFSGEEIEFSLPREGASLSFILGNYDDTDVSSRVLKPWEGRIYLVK

IC50 ([1]; read-out: IC50 Value α-Glucosidase) [µM]	Structure (SMILES)	IC50 [2, 3] [µM]	IC50 [1, 4] [µM]	IC50 [2] [µM]	IC50 ([1]; IC50 Value α-Glucosidase, plasma irradiation time 0 min (control, parent EGCG)) [µM]	IC50 ([2]; plasma irradiation time 0 min (control, parent EGCG), read-out: IC50 Value α-Amylase (converted)) [µM]
15.9 ± 0.3	O=C(O[C@@H]1Cc2c(O)cc(O)cc2O[C@@H]1C1=CC(=O)C2(O)C3C([C@H]4Oc5cc(O)cc(O)c5C[C@H]4OC(=O)c4cc(O)c(O)c(O)c4)=CC(=O)C4(O)C1C2(O)OC34O)c1cc(O)c(O)c(O)c1 (stereo partly shown) [Compound 1, EGCG quinone dimer A]	18.7 ± 0.3	–	–	–	–
–	O=C(O[C@@H]1Cc2c(O)cc(O)cc2O[C@@H]1C1=CC(=O)[C@]2(O)C(=O)c3c(cc(O)c(O)c3O)[C@H]12)c1cc(O)c(O)c(O)c1 [Compound 2, theacitrinin A]	–	20.7 ± 0.5	25.3 ± 0.6	–	–
–	O=C(O)c1cc(O)c(O)c(O)c1 [Compound 3, gallic acid]	–	> 300	> 300	–	–
–	O=C(O[C@@H]1Cc2c(O)cc(O)cc2O[C@@H]1c1cc(O)c(O)c(O)c1)c1cc(O)c(O)c(O)c1 [EGCG, (−)-Epigallocatechin gallate, reference compound]	75.5 ± 1.3	97.2 ± 1.2	–	97.1	75.3
